According to PubChem BioAssay AID2060489 (Molecular Pharmacology Branch, DTP, NCI, 2025):
Several values for one entry are separate records, joined by “and”; a condition that tells them apart may be missing. Identical values can stand only once. One block for each molecule: values may come before it.

Tested on: 922993-354-T-J3-PDC complex spheroids, viability
Test: Anticancer human tumor 922993-354-T-J3-PDC patient-derived endometrial carcinoma cell line growth inhibition [GQUAD]
Conditions: for viability, T/C: stronger effect = lower value
Source text: DNA G-quadruplex Stabilizer Agents in Combinations in Complex Spheroids
A high-throughput screen of multi-cell type tumor spheroids was designed to identify active combinations of DNA G-quadruplex stabilizer agents and targeted small molecules. Complex spheroids include a stromal component modeled by human endothelial cells (HUVEC) and fibroblasts modeled by human mesenchymal stem cells (MSCs). The concentration ranges selected for each drug and investigational agent were based upon clinically achievable concentrations if the clinical Cmax of the agent was known.
Compounds. The drugs and investigational agents: pidnarulex (CX-5461; NSC782164), APTO-253 (NSC789042), BRACO-19 (NSC847499), peposertib (NSC802822), ceralasertib (NSC780249), elimusertib (NSC800525), camonsertib (NSC841442), AZD-1390 (NSC803789), olaparib (NSC753686), talazoparib (NSC767125), ART-558 (NSC835418), sotorasib (NSC818433), MRTX-1133 (NSC836407), SN-38 (NSC673596), topotecan (NSC609699), etoposide (NSC141540), doxorubicin (NSC123127), gemcitabine (NSC613327), 5-fluorouracil (NSC19893), paclitaxel (NSC125973), vemurafenib (NSC761431), panobinostat (NSC761190), R-306465 (JNJ-16241199; NSC773264), adavosertib (NSC754352), TP-3654 (NSC805149), carboplatin (NSC241240), KSQ-4279 (NSC840948), and staurosporine (NSC755774) were obtained from the National Cancer Institute (NCI) Developmental Therapeutics Program Chemical Repository (34). The FDA-approved anticancer drug set is available from the NCI Developmental Therapeutics Program. […] The stock solutions were prepared in dimethyl sulfoxide (DMSO, Sigma-Aldrich, St. Louis, MO, cat. D2650) at 800-fold the tested concentration and stored at -70 degrees C prior to their use. All drugs and investigational agents were tested over a range starting from a high concentration at or near the clinical Cmax and decreasing in half-log increments. If the clinical Cmax for an agent had not been determined, the highest concentration tested was 10 microM.
2.3 Cell Culture. All cells were maintained in an incubator at 37 degrees C and 5% CO2 with 95% humidity. The PDC lines were cultured according to standard operating procedures established by the NCI PDMR. All PDCs were thawed and cultured in Matrigel-coated flasks prepared with a working solution of 1X Ham's F-12 nutrient mix, without supplementation (Invitrogen, cat. 11765054), 100 U/mL penicillin-streptomycin (Invitrogen, cat. 15140122), and 2.5% Matrigel (Corning Inc., cat. 354248) for the first three passages. The 857933-349-R-J2-PDC line was cultured in 6C/Colon 1B media, which includes advanced DMEM/F-12 (Thermo Fisher Scientific, cat. 12634028), 10 mM HEPES (Thermo Fisher Scientific, cat. 15630080), 1X GlutaMAX supplement (Thermo Fisher Scientific, cat. 35050061), 0.1 mg/mL primocin (InvivoGen, cat. ant-pm-2), 10% defined fetal bovine serum, heat inactivated (HyClone Laboratories Inc., cat. SH30070.03HI), 50% L-WRN conditioned media (ATCC, cat. CRL-3276), 1.25 mM N-Acetyl-L-cysteine (Sigma-Aldrich, cat. A9165), 10 mM nicotinamide (Sigma-Aldrich, cat. N0636), 1X B-27 supplement (Thermo Fisher Scientific, cat. 17504044), 1X N-2 supplement (Thermo Fisher Scientific, cat. 17502048), 10 microM Y-27632 dihydrochloride (Tocris Bioscience, cat. 1254), and 50 ng/mL human EGF recombinant protein (Thermo Fisher Scientific, cat. PHG0311). The 485176-168-R4-J1-PDC line was cultured in Panc media, which includes all 6C/Colon 1B media components plus 100 ng/mL human FGF-10 (Thermo Fisher Scientific, cat. 100-26), 500 nM SB-431542 (Selleckchem, cat. S1067), and gastrin (Tocris, cat. 3006).
[…]

[1] = curve of first compound, second compound 0.0316 µM
[2] = curve of first compound, second compound 0.1 µM
[3] = curve of first compound, second compound 0.316 µM
[4] = curve of first compound, second compound 1 µM
[5] = curve of first compound, second compound 3.16 µM
[6] = curve of first compound, second compound 10 µM
[7] = second compound 0.0316 µM, first compound 0.0316 µM
[8] = second compound 0.0316 µM, first compound 0.1 µM
[9] = second compound 0.0316 µM, first compound 0.316 µM
[10] = second compound 0.0316 µM, first compound 1 µM
[11] = second compound 0.0316 µM, first compound 3.16 µM
[12] = second compound 0.0316 µM, first compound 10 µM
[13] = second compound 0.1 µM, first compound 0.0316 µM
[14] = second compound 0.1 µM, first compound 0.1 µM
[15] = second compound 0.1 µM, first compound 0.316 µM
[16] = second compound 0.1 µM, first compound 1 µM
[17] = second compound 0.1 µM, first compound 3.16 µM
[18] = second compound 0.1 µM, first compound 10 µM
[19] = second compound 0.316 µM, first compound 0.0316 µM
[20] = second compound 0.316 µM, first compound 0.1 µM
[21] = second compound 0.316 µM, first compound 0.316 µM
[22] = second compound 0.316 µM, first compound 1 µM
[23] = second compound 0.316 µM, first compound 3.16 µM
[24] = second compound 0.316 µM, first compound 10 µM
[25] = second compound 1 µM, first compound 0.0316 µM
[26] = second compound 1 µM, first compound 0.1 µM
[27] = second compound 1 µM, first compound 0.316 µM
[28] = second compound 1 µM, first compound 1 µM
[29] = second compound 1 µM, first compound 3.16 µM
[30] = second compound 1 µM, first compound 10 µM
[31] = second compound 3.16 µM, first compound 0.0316 µM
[32] = second compound 3.16 µM, first compound 0.1 µM
[33] = second compound 3.16 µM, first compound 0.316 µM
[34] = second compound 3.16 µM, first compound 1 µM
[35] = second compound 3.16 µM, first compound 3.16 µM
[36] = second compound 3.16 µM, first compound 10 µM
[37] = second compound 10 µM, first compound 0.0316 µM
[38] = second compound 10 µM, first compound 0.1 µM
[39] = second compound 10 µM, first compound 0.316 µM
[40] = second compound 10 µM, first compound 1 µM
[41] = second compound 10 µM, first compound 3.16 µM
[42] = second compound 10 µM, first compound 10 µM
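Note: spheroids exposed to compounds for seven days.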
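Throughout, for viability, T/C: 100% = DMSO vehicle control viability.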

SMILES: CC1COCCN1c1cc(C2(O)CC3CCC(C2)O3)c2cnn(-c3ccn[nH]3)c2n1 (stereo unspecified) + CN(C)c1ccc(Nc2c3ccc(NC(=O)CCN4CCCC4)cc3nc3cc(NC(=O)CCN4CCCC4)ccc23)cc1
IC50 [1]: 456 nM
IC50 [2]: 545 nM
IC50 [3]: 483 nM
IC50 [4]: 784 nM
IC50 [5]: 520 nM
IC50 [6]: 906 nM
viability, T/C [7]: 124%
viability, T/C [8]: 78.8%
viability, T/C [9]: 67%
viability, T/C [10]: 29.4%
viability, T/C [11]: 23.3%
viability, T/C [12]: 18.4%
viability, T/C [13]: 82.8%
viability, T/C [14]: 82.2%
viability, T/C [15]: 68.2%
viability, T/C [16]: 29.8%
viability, T/C [17]: 21.3%
viability, T/C [18]: 22%
viability, T/C [19]: 112%
viability, T/C [20]: 86.1%
viability, T/C [21]: 66.4%
viability, T/C [22]: 27.3%
viability, T/C [23]: 22.1%
viability, T/C [24]: 19.7%
viability, T/C [25]: 98.6%
viability, T/C [26]: 102%
viability, T/C [27]: 70.5%
viability, T/C [28]: 47.3%
viability, T/C [29]: 20.2%
viability, T/C [30]: 19.7%
viability, T/C [31]: 127%
viability, T/C [32]: 79.7%
viability, T/C [33]: 65.5%
viability, T/C [34]: 39.4%
viability, T/C [35]: 21.5%
viability, T/C [36]: 25.4%
viability, T/C [37]: 115%
viability, T/C [38]: 113%
viability, T/C [39]: 86.4%
viability, T/C [40]: 48.8%
viability, T/C [41]: 21.7%
viability, T/C [42]: 25.2%

IC50 (curve of compound): < 31.6 nM
SMILES: Nc1ccn(C2OC(CO)C(O)C2(F)F)c(=O)n1 (stereo unspecified)
viability, T/C (compound 0.0316 µM): 22.6% and 12.1% and 26.3%
viability, T/C (compound 0.1 µM): 22% and 11.3% and 23.6%
viability, T/C (compound 0.316 µM): 28% and 12.5% and 23.7%
viability, T/C (compound 1 µM): 24.6% and 13.1% and 30.6%
viability, T/C (compound 3.16 µM): 23.4% and 12.9% and 18.8%
viability, T/C (compound 10 µM): 20.9% and 11.3% and 20.8%

SMILES: COc1cc(C2c3cc4c(cc3C(OC3OC5COC(C)OC5C(O)C3O)C3COC(=O)C23)OCO4)cc(OC)c1O (stereo unspecified) + Cc1[nH]c2ccc(F)cc2c1-c1nc2c3cccnc3c3ncccc3c2[nH]1
IC50 [1]: > 10000 nM
IC50 [2]: > 10000 nM
IC50 [3]: > 10000 nM
IC50 [4]: > 10000 nM
IC50 [5]: > 10000 nM
IC50 [6]: > 10000 nM
viability, T/C [7]: 95.3%
viability, T/C [8]: 89.1%
viability, T/C [9]: 83.8%
viability, T/C [10]: 99.4%
viability, T/C [11]: 76.6%
viability, T/C [12]: 61.3%
viability, T/C [13]: 113%
viability, T/C [14]: 97.5%
viability, T/C [15]: 92.2%
viability, T/C [16]: 92.6%
viability, T/C [17]: 76.2%
viability, T/C [18]: 62.7%
viability, T/C [19]: 110%
viability, T/C [20]: 109%
viability, T/C [21]: 84.1%
viability, T/C [22]: 110%
viability, T/C [23]: 56.4%
viability, T/C [24]: 61.8%
viability, T/C [25]: 138%
viability, T/C [26]: 121%
viability, T/C [27]: 96.6%
viability, T/C [28]: 75.8%
viability, T/C [29]: 72.4%
viability, T/C [30]: 71.4%
viability, T/C [31]: 125%
viability, T/C [32]: 109%
viability, T/C [33]: 76.2%
viability, T/C [34]: 97.6%
viability, T/C [35]: 72.3%
viability, T/C [36]: 60.5%
viability, T/C [37]: 111%
viability, T/C [38]: 97.7%
viability, T/C [39]: 79.1%
viability, T/C [40]: 82.8%
viability, T/C [41]: 74.2%
viability, T/C [42]: 58.8%
